# Results published in patent publication US9469650B2, “Melampomagnolide B derivatives” (BOARD OF TRUSTEES OF THE UNIVERSITY OF ARKANSAS, priority 2013, dated 2016).
# What was measured:
# HL-60(TB) = test: cells; settings: Homo sapiens; for GI50: HL-60; for CC50: HL-60, read-out: LC50; for IC (TGI): HL-60, read-out: TGI
# [1] = tested on: panel of 60 human tumor cell lines; test: panel of 60 human tumor cell lines, whole panel or sub-panel (single concentration screen, summaries); type: cell-based; settings: for inhibition at 10 µM: single concentration of 10^−5 M, read-out: growth inhibition in at least eight human cancer cell lines from the panel; for GI50: range over 6a and 6e
# RPMI-8226 = test: panel of 60 human tumor cell lines, growth inhibition (Leukemia); settings: for GI50 / CC50: Homo sapiens; for GI50 / TGI / Percent Growth: RPMI-8226; for CC50: RPMI-8226, read-out: LC50
# UACC-62 = test: panel of 60 human tumor cell lines, growth inhibition (Melanoma); settings: for GI50 / CC50 / IC (TGI): Homo sapiens; for GI50 / Percent Growth: UACC-62; for CC50: UACC-62, read-out: LC50; for IC (TGI): UACC-62, read-out: TGI
# MALME-3M = test: as above; settings: for GI50 / CC50: Homo sapiens, Malme-3M; for CC50: read-out: LC50; for TGI / Percent Growth: MALME-3M
# Source text for AML 052308 cells: Derivatives were screened for antileukemic activity against AML cells in culture (See FIGS. 1-7).
SMILES,GI50 (HL-60(TB)) [µM],CC50 (HL-60(TB)) [µM],IC (TGI) (HL-60(TB)) [µM],inhibition at 10 µM [1] [%],GI50 (RPMI-8226) [µM],CC50 (RPMI-8226) [µM],Percent Growth (RPMI-8226; Log10 Concentration −4.0) [%],Percent Growth (RPMI-8226; Log10 Concentration −5.0) [%],Percent Growth (RPMI-8226; Log10 Concentration −6.0) [%],Percent Growth (RPMI-8226; Log10 Concentration −7.0) [%],Percent Growth (RPMI-8226; Log10 Concentration −8.0) [%],GI50 (UACC-62) [µM],CC50 (UACC-62) [µM],IC (TGI) (UACC-62) [µM],GI50 (MALME-3M) [µM],CC50 (MALME-3M) [µM],Percent Growth (MALME-3M; Log10 Concentration −4.0) [%],Percent Growth (MALME-3M; Log10 Concentration −5.0) [%],Percent Growth (MALME-3M; Log10 Concentration −6.0) [%],cytotoxicity compared to MMB (AML 052308 cells),other results
"C=C1C(=O)O[C@H]2[C@H]1CC/C(COC(=O)NCCN1CCOCC1)=C\CC[C@@]1(C)O[C@@H]21 [JVM 57, ((1aR,7aS,10aS,10bS,E)-1a-methyl-8-methylene-9-oxo-1a,2,3,6,7,7a,8,9,10a,10b-decahydrooxireno[2′,3′:9,10]-cyclodeca[1,2-b]furan-5-yl)-methyl(2-morpholinoethyl)carbamate]",3.59,85.1,16.1,> 60,5.72,> 100,−47,34,99,97,100,11.8,53.2,25.1,6.12,63.2,−72,37,97,less active than MMB,TGI (RPMI-8226): 2.63E−5; TGI (MALME-3M): 2.19E−5; Percent Growth (MALME-3M; Log10 Concentration −7.0): 91%; Percent Growth (MALME-3M; Log10 Concentration −8.0): 100%
C=C1C(=O)O[C@H]2[C@H]1CC/C(COC(=O)CCC(=O)NCc1ccc(Cl)nc1)=C\CC[C@@]1(C)O[C@@H]21 [JVM 96],2.12,> 100,8.75,> 60,4.16,> 100,−48,23,94,107,106,6.61,51.2,20.9,–,–,–,–,–,–,TGI (RPMI-8226): 2.09E−5; Percent Growth (UACC-62; Log10 Concentration −4.0): −87%; Percent Growth (UACC-62; Log10 Concentration −5.0): 41%; Percent Growth (UACC-62; Log10 Concentration −6.0): 90%; Percent Growth (UACC-62; Log10 Concentration −7.0): 98%; Percent Growth (UACC-62; Log10 Concentration −8.0): 98%
"C=C1C(=O)O[C@H]2[C@H]1CC/C(COC(=O)NCCc1ccccn1)=C\CC[C@@]1(C)O[C@@H]21 [JVM 61, ((1aR,7aS,10aS,10bS,E)-1a-methyl-8-methylene-9-oxo-1a,2,3,6,7,7a,8,9,10a,10b-decahydrooxireno[2′,3′:9,10]cyclodeca[1,2-b]furan-5-yl)methyl-(2-(pyridin-2-yl)ethyl)carbamate]",–,–,–,> 60,8.2,> 100,−32,45,100,100,102,6.29,49,20.3,7.52,84.9,−57,44,95,almost equal cytotoxicity to MMB,TGI (RPMI-8226): 3.88E−5; Percent Growth (UACC-62; Log10 Concentration −4.0): −90%; Percent Growth (UACC-62; Log10 Concentration −5.0): 40%; Percent Growth (UACC-62; Log10 Concentration −6.0): 89%; Percent Growth (UACC-62; Log10 Concentration −7.0): 92%; Percent Growth (UACC-62; Log10 Concentration −8.0): 100%; TGI (MALME-3M): 2.71E−5; Percent Growth (MALME-3M; Log10 Concentration −7.0): 100%; Percent Growth (MALME-3M; Log10 Concentration −8.0): 114%
C=C1C(=O)O[C@H]2[C@H]1CC/C(COC(=O)NCCCCCCO)=C\CC[C@@]1(C)O[C@@H]21 [JVM 2-31],3.64,> 100,14.2,> 60,–,–,–,–,–,–,–,6.78,53.4,21.4,–,–,–,–,–,–,–
C=C1C(=O)O[C@H]2[C@H]1CC/C(COC(=O)OC)=C\CC[C@@]1(C)O[C@@H]21 [JVM 2-40],1.69,76.3,7.15,> 60,–,–,–,–,–,–,–,5.93,46.2,19.5,–,–,–,–,–,–,–
"C=C1C(=O)O[C@H]2[C@H]1CC/C(COC(=O)Nc1n[nH]c(SC)n1)=C\CC[C@@]1(C)O[C@@H]21 [JVM 64, ((1aR,7aS,10aS,10bS,E)-1a-methyl-8-methylene-9-oxo-1a,2,3,6,7,7a,8,9,10a,10b-decahydrooxireno[2′,3′:9,10]cyclodeca[1,2-b]furan-5-yl)methyl-(5-(methylthio)-1H-1,2,4-triazol-3-yl)carbamate]",–,–,–,> 60,2.57,> 100,−46,−11,93,100,101,1.6,15,4.35,2.32,78.8,−54,−12,66,more potent than MMB,GI50 ([1]; sub-panel breast cancer): 0.57 to 3.07 µM; GI50 ([1]; sub-panel colon cancer): 1.12 to 2.06 µM; GI50 ([1]; sub-panel melanoma): 0.46 to 2.84 µM; GI50 ([1]; sub-panel non-small cell lung cancer): 0.65 to 1.45 µM; GI50 ([1]; sub-panel renal cancer): 0.9 to 2.6 µM; TGI (RPMI-8226; NCI five dose): 7.79E−6; Percent Growth (MALME-3M; Log10 Concentration −7.0): 99%; Percent Growth (MALME-3M; Log10 Concentration −8.0): 104%; TGI (MALME-3M; NCI five dose): 7.53E−6; fold more cytotoxic than MMB (AML 052308 cells): 3 fold
C=C1C(=O)O[C@H]2[C@H]1CC/C(COC(=S)n1ccnc1)=C\CC[C@@]1(C)O[C@@H]21 [JVM 66],4.05,69.5,16.2,> 60,11,> 100,−31,53,102,103,103,13.9,74.8,32.3,14.5,> 100,−32,66,107,more potent than MMB,TGI (RPMI-8226; NCI five dose): 4.29E−5; Percent Growth (MALME-3M; Log10 Concentration −7.0): 95%; Percent Growth (MALME-3M; Log10 Concentration −8.0): 94%; TGI (MALME-3M; NCI five dose): 4.74E−5; fold more cytotoxic than MMB (AML 052308 cells): about 6 fold; fold more potent than parthenolide (AML 052308 cells; AML 052308 cells): 3 fold
C=C1C(=O)O[C@H]2[C@H]1CC/C(COC(=O)OCCCN1CCCCC1)=C\CC[C@@]1(C)O[C@@H]21 [JVM 2-26],1.88,98.7,7.53,> 60,–,–,–,–,–,–,–,8.05,47.1,11,–,–,–,–,–,more potent than MMB,fold more cytotoxic than MMB (AML 052308 cells): 3 fold
C=C1C(=O)O[C@H]2[C@H]1CC/C(COC(=O)OCCN(C)C)=C\CC[C@@]1(C)O[C@@H]21 [JVM 2-35],1.77,87,6.4,> 60,–,–,–,–,–,–,–,6.13,46.6,19.9,–,–,–,–,–,–,–
